For 21 molecules, IC50 results are on record in US20230399342A1 (Incyte Corporation, priority 2022, published 2023).

Test [1] has as its target DGKζ (Homo sapiens (Human), UniProt Q13574). The experiment in a line: In vitro DGKζ inhibition assay (ADP-Glo). Type of test: biochemical. The following applies: His-tagged human recombinant enzyme, 0.4 nM DGK, 30 μM ATP, 20 μM DLG, 90 minute incubation. The method in brief:
(§1)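 His-tagged human DGKα (0.1 nM, 50 μM ATP) or DGKζ (0.4 nM, 30 μM ATP), each with 20 μM DLG, in Tris pH 7.5 buffer with CHAPS, Mg2+, Ca2+.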
On the technique in general: ADP-Glo turns the ADP formed in a reaction into a luminescent signal.

Test [2] concerns the target DGKα (Homo sapiens (Human), UniProt P23743). The experiment in a line: In vitro DGKα inhibition assay (ADP-Glo). Type of test: biochemical. The note with it: His-tagged human recombinant enzyme, 0.1 nM DGKα, 50 μM ATP, 20 μM DLG, 90 minute incubation. The method in brief: as §1

Structures are written as SMILES.

Sequence of DGKα (P23743 whole entry): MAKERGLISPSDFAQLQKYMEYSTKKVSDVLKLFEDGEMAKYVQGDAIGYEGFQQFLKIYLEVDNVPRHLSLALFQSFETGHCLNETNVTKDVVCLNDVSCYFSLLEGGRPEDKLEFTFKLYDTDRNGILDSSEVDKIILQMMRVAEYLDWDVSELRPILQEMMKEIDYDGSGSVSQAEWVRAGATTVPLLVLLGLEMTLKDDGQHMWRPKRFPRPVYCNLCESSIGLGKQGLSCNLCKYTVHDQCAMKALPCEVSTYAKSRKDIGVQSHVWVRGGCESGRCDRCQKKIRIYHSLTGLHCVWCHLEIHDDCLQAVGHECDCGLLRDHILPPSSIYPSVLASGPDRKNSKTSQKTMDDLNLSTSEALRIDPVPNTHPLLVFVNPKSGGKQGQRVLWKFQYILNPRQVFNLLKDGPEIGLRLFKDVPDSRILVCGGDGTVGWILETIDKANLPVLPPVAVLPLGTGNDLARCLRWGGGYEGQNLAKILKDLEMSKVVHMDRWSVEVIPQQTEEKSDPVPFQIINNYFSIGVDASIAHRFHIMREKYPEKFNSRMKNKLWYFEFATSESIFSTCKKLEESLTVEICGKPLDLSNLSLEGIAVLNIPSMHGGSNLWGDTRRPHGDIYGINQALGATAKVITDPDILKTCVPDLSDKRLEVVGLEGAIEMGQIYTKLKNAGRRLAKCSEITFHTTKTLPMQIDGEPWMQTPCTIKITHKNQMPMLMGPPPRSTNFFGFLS
Sequence of DGKζ (Q13574 whole entry): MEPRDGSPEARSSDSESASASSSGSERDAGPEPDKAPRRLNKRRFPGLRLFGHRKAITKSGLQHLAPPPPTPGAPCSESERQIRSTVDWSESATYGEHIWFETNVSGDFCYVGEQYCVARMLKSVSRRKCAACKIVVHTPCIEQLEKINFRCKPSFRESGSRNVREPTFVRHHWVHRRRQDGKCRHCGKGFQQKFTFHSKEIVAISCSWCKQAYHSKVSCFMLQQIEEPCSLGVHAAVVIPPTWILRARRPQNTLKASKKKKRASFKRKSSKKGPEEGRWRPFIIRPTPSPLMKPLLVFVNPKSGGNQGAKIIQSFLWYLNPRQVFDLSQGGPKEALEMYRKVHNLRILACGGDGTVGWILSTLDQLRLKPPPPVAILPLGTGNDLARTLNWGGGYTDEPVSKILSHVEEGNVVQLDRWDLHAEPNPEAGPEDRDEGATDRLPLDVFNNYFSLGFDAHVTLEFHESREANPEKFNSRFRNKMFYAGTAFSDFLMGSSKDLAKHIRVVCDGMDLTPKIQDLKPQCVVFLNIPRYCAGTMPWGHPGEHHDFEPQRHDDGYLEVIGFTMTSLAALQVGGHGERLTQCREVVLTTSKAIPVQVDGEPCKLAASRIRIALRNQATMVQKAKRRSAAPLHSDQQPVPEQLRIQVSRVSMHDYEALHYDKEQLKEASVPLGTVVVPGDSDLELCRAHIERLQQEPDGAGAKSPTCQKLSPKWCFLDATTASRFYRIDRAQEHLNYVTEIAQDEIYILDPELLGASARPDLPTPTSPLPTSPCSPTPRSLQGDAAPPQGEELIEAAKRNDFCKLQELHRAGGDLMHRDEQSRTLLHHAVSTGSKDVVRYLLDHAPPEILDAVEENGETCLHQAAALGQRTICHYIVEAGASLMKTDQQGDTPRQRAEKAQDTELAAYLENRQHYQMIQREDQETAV

In general, IC50 refers to the midpoint of a concentration-inhibition curve. `CC[C@H]1CN(C(c2ccc(F)cc2)c2ccc(F)cc2)[C@H](CC)CN1c1nc2nncn2c2c1nnn2C[C@@H]1CCCO1` [Example 31, 4-((2S,5R)-4-(Bis(4-fluorophenyl)methyl)-2,5-diethylpiperazin-1-yl)-1-(((S)-tetrahydrofuran-2-yl)methyl)-1H-[1,2,3]triazolo[4,5-e][1,2,4]triazolo[4,3-a]pyrimidine]: the IC50 in test [1] and in test [2] was not above 20 nM in each case.

For `Cc1nc2c(N3C[C@@H](C)N(C(c4ccc(Cl)cc4)c4ccc(F)c(Cl)c4)C[C@@H]3C)nc3nncn3c2n1C[C@@H]1CCCO1` (single isomer, unassigned) [Example 140], the IC50 in test [1] and in test [2] was not above 20 nM throughout.

`C[C@@H]1CN(c2nc3nncn3c3c2nnn3C[C@H]2CCCO2)[C@@H](C)CN1C(c1ccc(Br)cc1)c1ccc(Br)cc1` [Example 110, 4-((2S,5R)-4-(Bis(4-bromophenyl)methyl)-2,5-dimethylpiperazin-1-yl)-1-(((R)-tetrahydrofuran-2-yl)methyl)-1H-[1,2,3]triazolo[4,5-e][1,2,4]triazolo[4,3-a]pyrimidine]: the IC50 in test [1] and in test [2] was not above 20 nM each time.

For the molecule `Cc1nc2c(N3C[C@@H](C)N(C(c4ccc(F)cc4)c4ccc(F)cc4)C[C@@H]3C)nc3nncn3c2n1C[C@@H]1CCCO1` [Example 19, 4-((2S,5R)-4-(Bis(4-fluorophenyl)methyl)-2,5-dimethylpiperazin-1-yl)-2-methyl-1-(((S)-tetrahydrofuran-2-yl)methyl)-1H-[1,2,4]triazolo[3,4-b]purine], the IC50 in test [1] and in test [2] was not above 20 nM throughout.

For the molecule `C[C@@H]1CN(c2nc3nncn3c3c2ncn3C[C@@H]2CCCO2)[C@@H](C)CN1[C@H](c1ccc(F)cc1)c1ccc(OC(F)(F)F)cn1` [Example 27, 4-((2S,5R)-4-((R)-(4-fluorophenyl)(5-(trifluoromethoxy)pyridin-2-yl)methyl)-2,5-dimethylpiperazin-1-yl)-1-(((S)-tetrahydrofuran-2-yl)methyl)-1H-[1,2,4]triazolo[3,4-b]purine], the IC50 in test [1] and in test [2] was not above 20 nM in each case.

`C[C@@H]1CN(c2nc3nncn3c3c2ncn3CC2CC2)[C@@H](C)CN1C(c1ccc(F)cc1)c1ccc(F)cc1` [Example 18, 4-((2S,5R)-4-(Bis(4-fluorophenyl)methyl)-2,5-dimethylpiperazin-1-yl)-1-(cyclopropylmethyl)-1H-[1,2,4]triazolo[3,4-b]purine]: the IC50 in test [1] and in test [2] was not above 20 nM throughout.

For `Cc1nc2c(N3C[C@@H](C)N([C@@H](c4ccc(C(F)(F)F)cc4)C(C)C)C[C@@H]3C)nc3nncn3c2n1C[C@@H]1CCCO1` [Example 68, 4-((2S,5R)-2,5-dimethyl-4-((R)-2-methyl-1-(4-(trifluoromethyl)phenyl)propyl)piperazin-1-yl)-2-methyl-1-(((S)-tetrahydrofuran-2-yl)methyl)-1H-[1,2,4]triazolo[3,4-b]purine], the IC50 in test [1] and in test [2] was not above 20 nM each time.

Regarding `CC[C@@H]1CN(c2nc3nncn3c3c2nc(C)n3C[C@@H]2CCCO2)[C@@H](C)CN1[C@@H](c1ccc(OC(F)F)cc1)C(C)C` [Example 127, 4-((2S,5R)-4-((R)-1-(4-(difluoromethoxy)phenyl)-2-methylpropyl)-5-ethyl-2-methylpiperazin-1-yl)-2-methyl-1-(((S)-tetrahydrofuran-2-yl)methyl)-1H-[1,2,4]triazolo[3,4-b]purine], the IC50 in test [1] and in test [2] was not above 20 nM each time.

In the case of `C[C@@H]1CN(c2nc3nncn3c3sc(-c4cn[nH]c4)nc23)[C@@H](C)CN1C(c1ccc(F)cc1)c1ccc(F)cc1` [Example 5, 4-((2S,5R)-4-(Bis(4-fluorophenyl)methyl)-2,5-dimethylpiperazin-1-yl)-2-(1H-pyrazol-4-yl)thiazolo[4,5-e][1,2,4]triazolo[4,3-a]pyrimidine], the IC50 was more than 2000 nM in test [1] and not above 20 nM in test [2].

With `CC(C)[C@@H](c1ccc(Cl)cc1)N1C[C@H](C)N(c2nc3nncn3c3c2ncn3CCN(C)C)C[C@H]1C` [Example 90, 2-(4-((2S,5R)-4-((S)-1-(4-Chlorophenyl)-2-methylpropyl)-2,5-dimethylpiperazin-1-yl)-1H-[1,2,4]triazolo[3,4-b]purin-1-yl)-N,N-dimethylethan-1-amine], the IC50 in test [1] and in test [2] was not above 20 nM in each case.

On to `Cc1nc2c(N3C[C@@H](CO)N(C(c4ccc(C(F)(F)F)cc4)C4CC(F)(F)C4)C[C@@H]3C)nc3nncn3c2n1C[C@@H]1CCCO1` (stereo partly drawn) [Example 122, ((2S,5S)-1-((3,3-Difluorocyclobutyl)(4-(trifluoromethyl)phenyl)methyl)-5-methyl-4-(2-methyl-1-(((S)-tetrahydrofuran-2-yl)methyl)-1H-[1,2,4]triazolo[3,4-b]purin-4-yl)piperazin-2-yl)methanol], for which the IC50 in test [1] and in test [2] was not above 20 nM throughout.

For the molecule `Cc1nc2c(N3C[C@@H](C)N(C(c4ccc(F)c(C(F)F)c4)C4CC(F)(F)C4)C[C@@H]3C)nc3nncn3c2n1C[C@@H]1CCCO1` (stereo partly drawn) [Example 54, 4-((2S,5R)-4-((3,3-Difluorocyclobutyl)(3-(difluoromethyl)-4-fluorophenyl)methyl)-2,5-dimethylpiperazin-1-yl)-2-methyl-1-(((S)-tetrahydrofuran-2-yl)methyl)-1H-[1,2,4]triazolo[3,4-b]purine], the IC50 in test [1] and in test [2] was not above 20 nM throughout.

For the molecule `Cc1nc2c(N3C[C@@H](C)N([C@H](c4ccc(C(F)F)cc4)C(C)C)C[C@@H]3C)nc3nncn3c2n1C[C@@H]1CCCO1` [Example 73, 4-((2S,5R)-4-((S)-1-(4-(Difluoromethyl)phenyl)-2-methylpropyl)-2,5-dimethylpiperazin-1-yl)-2-methyl-1-(((S)-tetrahydrofuran-2-yl)methyl)-1H-[1,2,4]triazolo[3,4-b]purine], the IC50 in test [1] and in test [2] was not above 20 nM in each case.

Take `Cc1nc2c(N3C[C@@H](C)N(C(c4ccc(F)c(Br)c4)C4CC(F)(F)C4)C[C@@H]3C)nc3nncn3c2n1C[C@@H]1CCCO1` (stereo partly drawn) [Example 62, 4-((2S,5R)-4-((3-Bromo-4-fluorophenyl)(3,3-difluorocyclobutyl)methyl)-2,5-dimethylpiperazin-1-yl)-2-methyl-1-(((S)-tetrahydrofuran-2-yl)methyl)-1H-[1,2,4]triazolo[3,4-b]purine]: the IC50 in test [1] and in test [2] was not above 20 nM in each case.

As to `C[C@@H]1CN(c2nc3nncn3c3c2ncn3CC2CC2)[C@@H](C)CN1[C@@H](c1ccc(F)cc1)c1ccc(OC(F)(F)F)cn1` [Example 24, 1-(Cyclopropylmethyl)-4-((2S,5R)-4-((S)-(4-fluorophenyl)(5-(trifluoromethoxy)pyridin-2-yl)methyl)-2,5-dimethylpiperazin-1-yl)-1H-[1,2,4]triazolo[3,4-b]purine], the IC50 in test [1] and in test [2] was not above 20 nM each time.

In the case of `Cc1nc2c(N3C[C@@H](C)N([C@@H](c4ccc(F)c(F)c4)C4CC(F)(F)C4)C[C@@H]3C)nc3nncn3c2n1C[C@@H]1CCCO1` [Example 47, 4-((2S,5R)-4-((R)-(3,3-difluorocyclobutyl)(3,4-difluorophenyl)methyl)-2,5-dimethylpiperazin-1-yl)-2-methyl-1-(((S)-tetrahydrofuran-2-yl)methyl)-1H-[1,2,4]triazolo[3,4-b]purine], the IC50 in test [1] and in test [2] was not above 20 nM each time.

`Cc1nc2c(N3C[C@@H](C)N([C@@H](c4cccc(Cl)c4)C(C)C)C[C@@H]3C)nc3nncn3c2n1C[C@@H]1CCCO1` [Example 97, 4-((2S,5R)-4-((R)-1-(3-chlorophenyl)-2-methylpropyl)-2,5-dimethylpiperazin-1-yl)-2-methyl-1-(((S)-tetrahydrofuran-2-yl)methyl)-1H-[1,2,4]triazolo[3,4-b]purine]: the IC50 in test [1] and in test [2] was not above 20 nM throughout.

As for `Cc1nc2c(N3C[C@@H](C)N(C(c4ccc(Br)cc4)c4ccc(Br)cc4)C[C@@H]3C)nc3nncn3c2n1C[C@@H]1CCCO1` [Example 108, 4-((2S,5R)-4-(Bis(4-bromophenyl)methyl)-2,5-dimethylpiperazin-1-yl)-2-methyl-1-(((S)-tetrahydrofuran-2-yl)methyl)-1H-[1,2,4]triazolo[3,4-b]purine], the IC50 in test [1] and in test [2] was not above 20 nM each time.

For `C[C@@H]1CN(c2nc3nncn3c3c2ncn3CCN(C)C)[C@@H](C)CN1C(c1ccc(Br)cc1)C1CC(F)(F)C1` (stereo partly drawn) [Example 65, 2-(4-((2S,5R)-4-((4-Bromophenyl)(3,3-difluorocyclobutyl)methyl)-2,5-dimethylpiperazin-1-yl)-1H-[1,2,4]triazolo[3,4-b]purin-1-yl)-N,N-dimethylethan-1-amine], the IC50 in test [1] and in test [2] was not above 20 nM in each case.

With `Cc1nc2c(N3C[C@@H](C)N(C(c4ccc(Br)cc4)C4CC(F)(F)C4)C[C@@H]3C)nc3nncn3c2n1C[C@@H]1CCCO1` (stereo partly drawn) [Example 61, 4-((2S,5R)-4-((4-Bromophenyl)(3,3-difluorocyclobutyl)methyl)-2,5-dimethylpiperazin-1-yl)-2-methyl-1-(((S)-tetrahydrofuran-2-yl)methyl)-1H-[1,2,4]triazolo[3,4-b]purine], the IC50 in test [1] and in test [2] was not above 20 nM in each case.

As for `Cc1nc2c(N3C[C@@H](C)N([C@H](c4ccc(C(F)(F)F)cc4)C(C)C)C[C@@H]3C)nc3nncn3c2n1C[C@@H]1CCCO1` [Example 67, 4-((2S,5R)-2,5-Dimethyl-4-((S)-2-methyl-1-(4-(trifluoromethyl)phenyl)propyl)piperazin-1-yl)-2-methyl-1-(((S)-tetrahydrofuran-2-yl)methyl)-1H-[1,2,4]triazolo[3,4-b]purine], the IC50 in test [1] and in test [2] was not above 20 nM in each case.
